pIC50: −log10 of the molar value.
Legend:
[1] = in vitro chromosomal aberration assay
Syk kinase = Syk kinase (Homo sapiens (Human), UniProt P43405); experiment: Isolated Syk kinase: phosphorylation of a peptide substrate or endogenous substrate (LAT)
CHMC cells = experiment: Phosphorylation of proteins downstream of Syk / LYN kinase in the FcεRI cascade, activated CHMC cells; type: cell-based, human; details: varying concentrations, FIG. 10
[2] = system: bone marrow derived mast cells (BMMC); experiment: BMMC high cell density IgE activation: histamine; type: cell-based, mouse; details: anti-IgE, second part of TABLE 1
In short: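 IgE-sensitized BMMC (1-3×10^6 cells/ml, MT buffer) were pretreated with compound for 1 h at 37 °C in 0.5% DMSO, then stimulated with DNP-BSA (6× stimulus, 60 ng/ml) for 1 h. Supernatant was taken, and cells were re-incubated 4–5 h in WEI-conditioned medium with compound. Mediators were quantified by ELISA.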

BMMC cells = experiment: Phosphorylation of proteins downstream of Syk kinase in the IgE receptor cascade, activated BMMC cells; type: cell-based, mouse; details: varying concentrations, FIG. 7
[3] = system: Salmonella-Escherichia coli tester strains
[4] = system: cultured human mast cells (CHMC); experiment: CHMC high cell density IgE activation: TNFalpha; type: cell-based; details: anti-IgE activation; read-out: CHMC high density TNF-alpha
In short: (§1)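 IgE-sensitized CHMC at 1-2×10^6 cells/ml were pretreated with compound for 1 h at 37 °C (0.5% DMSO final), then anti-IgE-stimulated for 1 h and supernatant collected. Hexosaminidase was read with a fluorogenic substrate. Pellets were re-incubated 7 h with compound before supernatant ELISAs.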

[5] = Mouse model of allergic asthma (ovalbumin); type: in vivo; details: less stringent protocol; subcutaneously 70 mg/kg in 67% PEG400/33% citrate buffer, 30 minutes prior to challenge
Source text: Mice are sensitized to ovalbumin (chicken protein) in the presence of an adjuvant (Alum) by the intraperitoneal route on day 0 and day 7. One week later, mice are challenged intranasally with ovalbumin on Days 14, 15 and 16 (more stringent model) or on Day 14 (less stringent model). This sensitization and challenge regimen leads to airway hyperresponsiveness and inflammation in the lungs, which are two dominant characteristics of human allergic asthma. In the mouse model, the in vivo airway responses are measured using a whole body plethysmograph which determines the PENH (enhanced Pause, Buxco Electronics). The PENH is a dimensionless value comprised of the peak inspiratory flow (PIF), peak expiratory flow (PEF), time of inspiration, time of expiration and relaxation time, and is considered a validated parameter of airway responsiveness. Responses to allergen challenge (OVA) are compared with animals challenged with saline only. Twenty-four hours after challenge, mice are exposed to increasing doses of methacholine (muscarinic receptor agonist) which results in smooth muscle contraction. […] In addition, a cellular infiltrate in the airway is observed in ovalbumin challenged mice when compared with the saline challenged mice. This cellular infiltrate is mainly characterized by eosinophils, but a smaller influx of neutrophils and mononuclear cells is also present.
The use of this model for the evaluation of small molecule inhibitors of mast cell degranulation has been validated is several ways. First, using mast cell deficient mice (W/W^v) it has been shown that the ovalbumin-induced responses are dependent upon the presence of mast cells.

[6] = system: bone marrow derived mast cells (BMMC); experiment: BMMC high cell density IgE activation: hexosaminidase; type: cell-based, mouse; details: anti-IgE, second part of TABLE 1, read-out: BMMC anti-IgE hexos. IC50
In short: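 IgE-sensitized BMMC at 1-3×10^6 cells/ml preincubated 1 hour at 37° C. with compound (0.5% DMSO), then stimulated 1 hour with DNP-BSA (6× stimulus 60 ng/ml). Supernatant hexosaminidase measured with 2 mM 4-methylumbelliferyl-N-acetyl-glucosaminide substrate at 37° C., read at 5–30 minutes.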

[7] = system: cultured human mast cells (CHMC); experiment: CHMC high cell density IgE activation: tryptase; type: cell-based; details: anti-IgE activation
Method: After sensitizing, cells are counted, pelleted (1000 rpm, 5-10 minutes), and resuspended at 1-2×10^6 cells/ml in MT buffer. Add 100 ul of cell suspension to each well and 100 ul of compound dilutions. The final vehicle concentration is 0.5% DMSO. Incubate at 37° C. (5% CO2) for 1 hour. After 1 hour of compound treatment, stimulate cells with 6× anti-IgE. Mix wells with the cells and allow plates to incubate at 37° C. (5% CO2) for one hour. After 1 hour incubation, pellet cells (10 minutes, 1000 RPM) and collect 200 ul per well of the supernatant, being careful not to disturb pellet. Place the supernatant plate on ice. During the 7-hour step (see next) perform tryptase assay on supernatant that had been diluted 1:500. Resuspend cell pellet in 240 ul of CM media containing 0.5% DMSO and corresponding concentration of compound. Incubate CHMC cells for 7 hours at 37° C. (5% CO2). After incubation, pellet cells (1000 RPM, 10 minutes) and collect 225 ul per well and place in −80° C. until ready to perform ELISAS. ELISAS are performed on appropriately diluted samples (determined empirically for each donor cell population so that the sample measurement falls within the standard curve) following the supplier's instructions.

[8] = system: cultured human mast cells (CHMC); experiment: CHMC high cell density IgE activation: hexos (hexosaminidase) release; type: cell-based; details: anti-IgE activation
In short: as §1

[9] = increasing concentrations, FIG. 8

| SMILES | clastogenic potential [1] | mode of inhibition of Syk kinase (Syk kinase; FIG. 9) | Syk kinase phosphorylation of a peptide substrate (Syk kinase; [9]) | Syk kinase phosphorylation of an endogenous substrate (LAT) (Syk kinase; [9]) | phosphorylation of proteins downstream of Syk kinase (CHMC cells) | pIC50 [2] | phosphorylation of various proteins downstream of Syk kinase (BMMC cells) | Ames test result [3] | pIC50 [4] | ovalbumin-induced airway hyperresponsiveness and cellular influx [5] | pIC50 [6] | pIC50 [7] | pIC50 [8] |
| --- | --- | --- | --- | --- | --- | --- | --- | --- | --- | --- | --- | --- | --- |
| CNC(=O)COc1cccc(Nc2ncc(F)c(Nc3ccc4c(c3)NCCO4)n2)c1 [R921219, N4-(1,4-Benzoxazin-6-yl)-5-fluoro-N2-[3-(N-methylamino)carbonylmethyleneoxyphenyl]-2,4-pyrimidinediamine] | not found to possess clastogenic potential | ATP competitive | dose responsive inhibition | dose responsive inhibition | inhibit | 7.24 | inhibit | test positive in tester strain TA1537, with and without metabolic activation | 6.72 | completely blocked |  |  |  |
| CNC(=O)COc1cccc(Nc2ncc(F)c(Nc3cccc(O)c3)n2)c1 [R926508, 5-Fluoro-N4-(3-hydroxyphenyl)-N2-[3-(N-methylamino)carbonylmethyleneoxyphenyl]-2,4-pyrimidinediamine] |  |  |  |  |  |  |  |  |  |  | 7.07 | 6.36 | 6.77 |
